We go through one molecule from US11412737B2, “Mixtures of beflubutamid or optically enriched forms thereof with a second herbicide” (FMC Corporation, priority 2016, dated 2022).

The test system of this assay is Green foxtail (SETVI). As to the kind of experiment: pre-emergence test, weed control. It is filed as in vivo, Setaria viridis. The following applies: pre-emergent, 28 DAT. On the procedure: Test compositions containing the test compounds were diluted with water to provide the appropriate test rate concentrations.
For pre-emergence testing, four disposable fiber flats (6 inch by 10 inch) for each rate of application of each herbicide solution were filled with top soil, to which seeds of each species were planted in furrows made by a template pressed on the top of the soil. The furrows were covered with soil after planting the seed and were watered well before application of the test compounds.
Fiber flats designated for treatment were placed in a spray chamber having a static platform and a movable sprayer and the height of the spray nozzle was 10.5 inches above the soil level. Once the sprayer was calibrated using water for spray volume of 30 gallons per acre, flats were sprayed with sprayer at a speed to receive a coverage equivalent of 30 gallons per acre. The application rates are those shown in the Tables below for the individual herbicidal solutions and the herbicide compositions of this invention. The pre-emergence flats were immediately placed in the greenhouse and watered lightly after treatment. Thereafter they were regularly watered and fertilized for the duration of the test.
The control of weeds was evaluated in each experimental test at 21 for wheat and 28 days after treatment (DAT) for all species. Data were analyzed using Minitab software at 95% confidence interval. The results, shown as an average of the replications, were compared with results observed in untreated control flats in the same tests. Percent control was determined by a method similar to the 0 to 100 rating system disclosed in “Research Methods in Weed Science,” 2nd ed., B. Truelove, Ed.; Southern Weed Science Society; Auburn University, Auburn, Ala., 1977. The rating system is as follows in Table 1.

On to `CC1(C)CON(Cc2ccc(Cl)cc2Cl)C1=O` [DCI, 2-(2,4-dichlorophenyl)methyl-4,4-dimethyl-3-isoxazolidinone], for which the “percentage of weed control, SETVI” value ((+)-BFL >95% e.e., rate g ai/ha by row: r6 62.5, r7 125, r8 62.5, r9 125, r10 222, r11 445, r12 22.5, r13 45, r14 62.5+62.5, r15 125+62.5, r16 62.5+125, r17 125+125, r18 62.5+222, r19 125+222, r20 62.5+445, r21 125+445, r22 62.5+22.5, r23 125+22.5, r24 62.5+45, r25 125+45, 62.5 g ai/ha) was found to be 91%; the “percentage of weed control, SETVI” value ((+)-BFL >95% e.e., rate g ai/ha by row: r6 62.5, r7 125, r8 62.5, r9 125, r10 222, r11 445, r12 22.5, r13 45, r14 62.5+62.5, r15 125+62.5, r16 62.5+125, r17 125+125, r18 62.5+222, r19 125+222, r20 62.5+445, r21 125+445, r22 62.5+22.5, r23 125+22.5, r24 62.5+45, r25 125+45, 125 g ai/ha) came to 99%; the “percentage of weed control, SETVI” value ((−)-BFL >95% e.e., rate g ai/ha by row: r6 62, r7 125, r8 125, r9 250, r10 445, r11 890, r12 45, r13 90, r14 62+125, r15 125+125, r16 62+250, r17 125+250, r18 62+445, r19 125+445, r20 62+890, r21 125+890, r22 62+45, r23 125+45, r24 62+90, r25 125+90, 125 g ai/ha) is reported as 98%; the “percentage of weed control, SETVI” value ((−)-BFL >95% e.e., rate g ai/ha by row: r6 62, r7 125, r8 125, r9 250, r10 445, r11 890, r12 45, r13 90, r14 62+125, r15 125+125, r16 62+250, r17 125+250, r18 62+445, r19 125+445, r20 62+890, r21 125+890, r22 62+45, r23 125+45, r24 62+90, r25 125+90, 250 g ai/ha) is given as 99%.
